{
  "source": "patent EP4516309A1",
  "about": "“CRHR1 AGONISTS FOR USE IN THE TREATMENT OF SOCIAL ANXIETY DISORDERS” (Consejo Superior de Investigaciones Cientificas, priority 2023, dated 2025)",
  "key": {"[1]": {"test_system": "GABAA and GABAB receptors", "assay": "Light-induced IPSCs in rdLS neurons after stimulation of CRH+ fibers from ILA expressing Channelrhodopsin", "format": "cell-based, mice", "conditions": "2µM SR 95531 and 1µM CGP 55845 applied together; neurons held at +10 mV", "description": "The inventors prepared coronal brain slices from 8- to 12-week-old C57BL6/J mice. […] Brains were cut into 400 µm slices with a vibratome (VT1200S, Leica) in the same ice-cold dissection solution. Slices were then transferred to an incubation chamber containing the same ACSF solution. The chamber was kept at 34°C for 30 min and then at room temperature for at least 1 h before recording. All experiments were performed at room temperature. Slices were mounted in the recording chamber under a microscope. Recordings were acquired using the Multiclamp 700A amplifier (Molecular Device), data acquisition interface ITC-18 (Instrutech) and the Axograph software. The inventors targeted CA2 PNs based somatic location and size in both deep and superficial layer. […] The liquid junction potential was 1.2 mV and was left uncorrected. Inhibitory currents were recorded in voltage-clamp configuration at +10 mV. […] LS neurons from WT mice were also recorded. […] The inventors used the Axograph software for data acquisition, and Excel (Microsoft) and PRISM (Graphpad) for data analysis."}, "CRHR1 [2]": {"test_system": "CRHR1", "assay": "Social novelty preference test after cannula infusion in rdLS", "format": "in vivo, C57BL/6J wild-type mice", "conditions": "2 µg of antalarmin in 0.6 µL of DMSO infused in rdLS", "excerpt": "The mouse scalp was removed and scored before a hole was drilled (AP +0.9, ML ±0). A cannula guide extending 2.4 mm below the pedestal (Plastics One #C315G 2-G11-SPC) was lowered slowly and kept in place using superglue. The skull was then covered with dental cement (GC FujiCEM 2) and dummy cannulas (Plastics One #C315DC-SPC) were inserted into the guides. The mice were returned to their home cages and left to recover for at least 1 week. For rdLS infusion, mice were placed under light isoflurane anesthesia (2%) and the dummy cannula was removed. A cannula (Plastics One #C315I-SPC) projecting 2.5 mm from the tip of the cannula guide was mounted. […]\nSocial novelty preference test. […] Using automatic tracking of the test mice (ANY-Maze, Stoelting), the inventors quantified the time the test mice spent in the immediate area surrounding each cup - and therefore, interacting with each stimulus mice - during learning and recall. Using the interaction time from the recall trial, the inventors calculated a discrimination index for social novelty preference as the following: D! = (time with novel - time with familiar) / total interaction time. […] The inventors also calculated the total time spent interacting with stimulus mice during each trial in order to verify that the sociability drive was not affected. […]"}, "CRHR1 [3]": {"molecular_target": "T1, CRHR1 (Mus musculus, UniProt P35347)", "T1 sequence (P35347 24-415)": "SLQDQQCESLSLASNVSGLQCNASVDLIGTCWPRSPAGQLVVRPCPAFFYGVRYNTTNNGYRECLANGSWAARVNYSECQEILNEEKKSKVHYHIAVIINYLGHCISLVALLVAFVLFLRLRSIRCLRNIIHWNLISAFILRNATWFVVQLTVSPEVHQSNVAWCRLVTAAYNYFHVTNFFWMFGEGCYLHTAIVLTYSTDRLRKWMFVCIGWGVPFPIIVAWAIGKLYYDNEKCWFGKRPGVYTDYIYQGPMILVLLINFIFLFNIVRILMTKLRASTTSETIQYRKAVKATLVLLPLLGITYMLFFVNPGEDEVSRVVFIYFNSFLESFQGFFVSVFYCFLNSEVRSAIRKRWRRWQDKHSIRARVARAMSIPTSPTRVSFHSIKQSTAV", "assay": "Inhibitory events in rdLS neurons before and after tetanic light stimulation of ILA CRH fibers, with or without antagonist", "format": "cell-based, mice", "conditions": "300 nM antalarmin in the bath", "excerpt": "The inventors prepared coronal brain slices from 8- to 12-week-old C57BL6/J mice. Animals were killed under isoflurane anesthesia by perfusion into the right ventricle of ice-cold solution containing the following (in mM): 125 NaCl, 2.5 KCI, 22.5 glucose, 25 NaHCOs, 1.25 NaH2PO4, 3 Na Pyruvate, 1 Ascorbic acid, 2 CaCl2 and 1 MgCl2). ACSF was saturated with 95% O2 and 5% CO2, pH 7.4. Brains were cut into 400 µm slices with a vibratome (VT1200S, Leica) in the same ice-cold dissection solution. Slices were then transferred to an incubation chamber containing the same ACSF solution. The chamber was kept at 34°C for 30 min and then at room temperature for at least 1 h before recording. All experiments were performed at room temperature. Slices were mounted in the recording chamber under a microscope. Recordings were acquired using the Multiclamp 700A amplifier (Molecular Device), data acquisition interface ITC-18 (Instrutech) and the Axograph software. […] Inhibitory currents were recorded in voltage-clamp configuration at +10 mV. […] LS neurons from WT mice were also recorded. […]\nThe inventors expressed channel rhodopsin in ILA^CRH neurons and prepared rdLS slices (Fig. 15F). The inventors obtained whole-cell recordings of rdLS neurons and recorded spontaneous inhibitory events (sIPSC) before and after applying a tetanic light stimulation. […]"}, "CRHR1 [4]": {"test_system": "CRHR1", "assay": "Spontaneous IPSC recording from LS cells in acute slices before and after agonist application", "format": "cell-based, mice", "conditions": "300 nM", "text": "The inventors prepared coronal brain slices from 8- to 12-week-old C57BL6/J mice. Animals were killed under isoflurane anesthesia by perfusion into the right ventricle of ice-cold solution containing the following (in mM): 125 NaCl, 2.5 KCI, 22.5 glucose, 25 NaHCOs, 1.25 NaH2PO4, 3 Na Pyruvate, 1 Ascorbic acid, 2 CaCl2 and 1 MgCl2). ACSF was saturated with 95% O2 and 5% CO2, pH 7.4. Brains were cut into 400 µm slices with a vibratome (VT1200S, Leica) in the same ice-cold dissection solution. Slices were then transferred to an incubation chamber containing the same ACSF solution. The chamber was kept at 34°C for 30 min and then at room temperature for at least 1 h before recording. All experiments were performed at room temperature. Slices were mounted in the recording chamber under a microscope. Recordings were acquired using the Multiclamp 700A amplifier (Molecular Device), data acquisition interface ITC-18 (Instrutech) and the Axograph software. […] Whole-cell recordings were obtained from LS neurons in voltage-clamp mode at -70 mV patch pipette (3-5 MΩ) containing the following (in mM): 135 Cs-gluconate, 5 KCI, 0.2 EGTA-Na, 10 HEPES, 2 NaCl, 5 ATP, 0.4 GTP, 10 phosphocreatine, and 5 µM biocytin, pH 7.2 (280-290 mOsm). The liquid junction potential was 1.2 mV and was left uncorrected. Inhibitory currents were recorded in voltage-clamp configuration at +10 mV. The inventors recorded rdLS neurons in septal slices from CRH-Cre mice expressing channelrhodopsin and applied 2 µM SR 95531 (Tocris, # 1262) and 1 µM CGP 55845 (Tocris, #1248) to block GABAA and GABAB receptors, respectively while monitoring the light induced IPSCs in rdLS neurons. The inventors also applied a tetanic light stimulation (3 times 100 pulses of 1 ms at 100 Hz) with or without 300 nM antalarmin (Tocris, #2778) present in the bath. LS neurons from WT mice were also recorded. After 10 min of stable baseline recording, stressin-1 (300 nM, Tocris # 1608) was applied following a 1:1000 dilution from stock solution into the ACSF. The inventors used the Axograph software for data acquisition, and Excel (Microsoft) and PRISM (Graphpad) for data analysis.\nThe inventors prepared acute LS slices from WT mice and recorded spontaneous inhibitory post-synaptic currents (IPSCs) from rdLS cells in whole-cell configuration before applying the CRHR1 agonist stressin-1 (300 nM, Fig. 15A-B). Stressin-1 application for 15 min decreased the frequency and integrated charge of spontaneous IPSCs (Fig. 15B-C and E). […] This effect was not seen when rLS neurons were recorded for 15 min without application of the agonist (Fig. 16 A1-A5)."}, "CRHR1 [5]": {"test_system": "CRHR1", "assay": "Whole-cell patch-clamp recordings from rdLS CRHR1 neurons in acute LS slices", "format": "cell-based", "conditions": "300 nM stressin-1, bath application; CRHR1-Cre;Ai9 mice; neurons clamped at -60 mV"}, "[6]": {"conditions": "application for 15 min, rdLS cells, WT mice"}},
  "data": [
    {"molecule": "C[C@H](NC[C@H](O)CP(=O)(O)Cc1ccccc1)c1ccc(Cl)c(Cl)c1", "note": "[CGP 55845]", "values": [
      {"measurement": "light-induced IPSCs", "setting": "[1]", "result": "abolished"}
    ]},
    {"molecule": "COc1ccc(-c2ccc(=N)n(CCCC(=O)O)n2)cc1", "note": "[SR 95531]", "values": [
      {"measurement": "light-induced IPSCs", "setting": "[1]", "result": "abolished"}
    ]},
    {"molecule": "CCCCN(CC)c1nc(C)nc2c1c(C)c(C)n2-c1c(C)cc(C)cc1C", "note": "[antalarmin]", "values": [
      {"measurement": "preference for the novel mouse", "setting": "CRHR1 [2]; recall trial", "result": "showed no novelty preference"},
      {"measurement": "Total exploration time during learning or recall", "setting": "CRHR1 [2]; vs. DMSO", "result": "not different between groups"},
      {"measurement": "decrease in inhibition (sIPSC frequency, amplitude, charge; elicited IPSC) following light stimulation", "setting": "CRHR1 [3]", "result": "blocked the disinhibition"}
    ]},
    {"molecule": "stressin-1", "values": [
      {"measurement": "IPSCs of vLS neurons", "setting": "CRHR1 [4]; 15 min, vLS neurons in posterior LS slices", "result": "had no effect"},
      {"measurement": "IPSC amplitude", "setting": "CRHR1 [4]; [6]", "result": "trend toward a decrease"},
      {"measurement": "frequency of spontaneous IPSCs", "setting": "CRHR1 [4]; [6]", "result": "decreased"},
      {"measurement": "integrated charge of spontaneous IPSCs", "setting": "CRHR1 [4]; [6]", "result": "decreased"},
      {"measurement": "current in rdLSCRHR1 neurons", "setting": "CRHR1 [5]", "result": "induced an inward current"}
    ]}
  ]
}
